Laboratory results as given in ChEMBL document CHEMBL1201862, “PubChem BioAssay data set” (2004).
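1) Cells in 96-well plates. 2) Compound, 48 h, 5 concentrations. 3) Linear interpolation between surrounding doses. 4) Unreached endpoint = highest concentration. Abbreviation: GI50, concentration required for 50% inhibition of growth.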 The source made the active and inactive calls. Cut-off read from the data, not from the text of the source: active = GI50 up to about 1.1 µM and inactive = higher.

Legend:
Assay in all cases: NCI-60 cell line screen, 48 h
[1] = tested on: A549
[2] = tested on: ACHN
[3] = tested on: CAKI-1
[4] = tested on: DU-145
[5] = tested on: EKVX
[6] = tested on: HCC 2998
[7] = tested on: HOP-92
[8] = tested on: K562
[9] = tested on: LOX IMVI
[10] = tested on: MDA-MB-435
[11] = tested on: OVCAR-3
[12] = tested on: OVCAR-5
[13] = tested on: OVCAR-8
[14] = tested on: RXF 393
[15] = tested on: SK-MEL-28
[16] = tested on: T47D
[17] = tested on: U-251
[18] = tested on: UACC-62
[19] = tested on: UO-31
[20] = tested on: Malme-3M

Measured: GI50

[N-]=[N+]=NI1OC(C(F)(F)F)(C(F)(F)F)c2ccccc21
inactive: [1] 14.9 µM | [2] 13.9 µM | [3] 8.55 µM | [4] 18 µM | [5] 16.9 µM | [6] 17.9 µM | [7] 13.4 µM | [8] 11.5 µM | [9] 15.2 µM | [10] 17.5 µM | [11] 14.7 µM | [12] 15.1 µM | [13] 16.3 µM | [14] 14 µM | [15] 13.9 µM | [16] 12.1 µM | [17] 18.1 µM | [18] 18 µM | [19] 11 µM

Cc1ccc(C2=CC(=O)/C(=C\C(=O)c3ccc(Cl)cc3)O2)cc1
inactive: [2] 5.09 µM | [3] 2.3 µM | [4] 32.6 µM | [5] 70 µM | [6] 27.4 µM | [7] 14.1 µM | [8] 4.15 µM | [9] 1.43 µM | [10] 18 µM | [20] 17.2 µM | [11] 4.7 µM | [12] 21.1 µM | [13] 3.13 µM | [14] 4.6 µM | [15] 16.9 µM | [16] 7.18 µM | [17] 17.7 µM | [18] 11.6 µM | [19] 9.51 µM

C1CCSCCCCSCCCCSCCCCSC1
inactive: [1] > 100 µM | [2] > 100 µM | [3] > 100 µM | [4] > 100 µM | [5] > 100 µM | [6] > 100 µM | [7] > 100 µM | [8] > 100 µM | [9] > 100 µM | [10] > 100 µM | [11] > 100 µM | [12] > 100 µM | [13] > 100 µM | [14] > 100 µM | [15] > 100 µM | [16] > 100 µM | [17] > 100 µM | [18] > 100 µM | [19] > 100 µM

CN(C)c1nc(NN)c2c(-c3ccccc3)c(-c3ccccc3)oc2n1
inactive: [1] > 100 µM | [2] > 100 µM | [3] > 100 µM | [4] > 100 µM | [5] > 100 µM | [6] > 100 µM | [7] > 100 µM | [8] 49 µM | [9] > 100 µM | [10] > 100 µM | [12] > 100 µM | [13] > 100 µM | [14] > 100 µM | [15] > 100 µM | [16] > 100 µM | [17] > 100 µM | [18] 44.8 µM | [19] > 100 µM

CN1c2ccccc2S(=O)(=O)n2c(COc3ccccc3)nnc21
inactive: [1] > 100 µM | [2] > 100 µM | [3] > 100 µM | [4] > 100 µM | [5] > 100 µM | [6] > 100 µM | [7] 56.5 µM | [8] > 100 µM | [9] > 100 µM | [10] > 100 µM | [11] > 100 µM | [12] > 100 µM | [13] > 100 µM | [14] > 100 µM | [15] > 100 µM | [16] > 100 µM | [17] > 100 µM | [18] > 100 µM | [19] > 100 µM

COC1CC(O[C@H]2CC[C@@]3(C)[C@@H](CC[C@]4(O)[C@@H]3CC[C@]3(C)[C@@H](C(C)=O)[C@H](OC(=O)CC(C)C)[C@@H](OC(=O)c5ccccc5)[C@@]34O)C2)OC(C)C1OC1CC(OC)C(OC2OC(C)C(O)C(OC)C2O)C(C)O1 (stereo partly specified)
inactive: [1] 7.89 µM | [2] 24.4 µM | [3] 17.7 µM | [4] > 25 µM | [5] 9.68 µM | [6] 9.2 µM | [7] 6.55 µM | [8] 11 µM | [9] 15.9 µM | [10] 12.2 µM | [20] 18.5 µM | [11] 11.8 µM | [12] > 25 µM | [13] 20 µM | [14] > 25 µM | [15] > 25 µM | [16] 8 µM | [17] 18 µM | [19] 9.46 µM

O=C(NNC(=S)Nc1ccc(Cl)cc1)c1cc(-c2ccccc2)nc2ccccc12
inactive: [1] 7.11 µM | [2] 10 µM | [3] 4.71 µM | [4] 4.23 µM | [6] 3.53 µM | [7] 3.59 µM | [8] 4.28 µM | [10] 2.82 µM | [20] 4.6 µM | [11] 2.66 µM | [12] 10.3 µM | [13] 8.11 µM | [14] 7.93 µM | [15] 3.31 µM | [16] 2.33 µM | [17] 3.51 µM | [18] 2.9 µM | [19] 5.28 µM
